ChEMBL document CHEMBL3856279, “The discovery of new cytotoxic pyrazolopyridine derivatives” (Bioorg Med Chem Lett, 2016)

Columns and labels:
[1] = Antiproliferative activity against human SKOV3 cells after 48 hrs by MTS assay; assay type: functional, cell-based; conditions: SK-OV-3, 48 h
[2] = Antiproliferative activity against human WI38 cells after 48 hrs by MTS assay; assay type: cell-based; conditions: WI-38, 48 h
[3] = Antiproliferative activity against human MIAPaCa2 cells after 48 hrs by MTS assay; assay type: functional, cell-based; conditions: MIA PaCa-2, 48 h
[4] = Antiproliferative activity against human A2058 cells after 48 hrs by MTS assay; assay type: functional, cell-based; conditions: A2058, 48 h
[5] = Cell cycle arrest in human PC3 cells assessed as accumulation at G0/G1 phase at antiproliferative IC50 after 48 hrs by propidium iodide staining based FACS analysis (reference value: 38.3 +/- 0.7%); assay type: functional; conditions: PC-3
[6] = Cell cycle arrest in human PC3 cells assessed as accumulation at G2/M phase at antiproliferative IC50 after 48 hrs by propidium iodide staining based FACS analysis (reference value: 24 +/- 2.9%); assay type: functional; conditions: PC-3
[7] = Induction of apoptosis in human PC3 cells assessed as appearance of apoptotic nuclei at antiproliferative IC50 after 48 hrs by propidium iodide staining based FACS analysis (reference value: 0.7 +/- 0.1%); assay type: functional, PC-3
[8] = Antiproliferative activity against human DU145 cells after 48 hrs by MTS assay; assay type: functional, cell-based; conditions: DU-145, 48 h
[9] = Cell cycle arrest in human PC3 cells assessed as accumulation at S phase at antiproliferative IC50 after 48 hrs by propidium iodide staining based FACS analysis (reference value: 37.7 +/- 2.2%); assay type: functional; conditions: PC-3
[10] = Antiproliferative activity against human PC3 cells after 48 hrs by MTS assay; assay type: functional, cell-based; conditions: PC-3, 48 h

## CC(C)c1n[nH]c2c(Nc3ccccc3)nc(Cl)cc12
[1]
  IC50: > 50 µM
[2]
  IC50: 38.7 µM
[3]
  IC50: 21.5 µM

## COc1cc(Nc2nccc3c(-c4ccccc4)n[nH]c23)cc(OC)c1OC
[4]
  IC50: 0.89 µM
[5]
  Activity: 80.8%
[6]
  Activity: 19.2%
[7]
  Activity: 25.8%
[1]
  IC50: 0.73 µM
[8]
  IC50: 0.92 µM
[2]
  IC50: 14.9 µM
[9]
  Activity: 0%
[10]
  IC50: 0.38 µM
[3]
  IC50: 3.8 µM

## COc1cc(Nc2nccc3cn[nH]c23)cc(OC)c1OC
[1]
  IC50: > 50 µM
[2]
  IC50: > 50 µM
[3]
  IC50: > 50 µM

## COc1cc(Nc2nc(Cl)cc3c(C(C)C)n[nH]c23)cc(OC)c1OC
[1]
  IC50: 5.6 µM
[2]
  IC50: 43.8 µM
[3]
  IC50: 6.1 µM

## c1ccc(Nc2nccc3cn[nH]c23)cc1
[1]
  IC50: > 50 µM
[2]
  IC50: > 50 µM
[3]
  IC50: > 50 µM

## COc1cc(Nc2nccc3c(C(C)C)n[nH]c23)cc(OC)c1OC
[1]
  IC50: 22.9 µM
[2]
  IC50: > 50 µM
[3]
  IC50: 10 µM

## COc1cc(Nc2nc(Cl)cc3cn[nH]c23)cc(OC)c1OC
[1]
  IC50: 13.1 µM
[2]
  IC50: > 50 µM
[3]
  IC50: 16.2 µM

## CC(C)c1n[nH]c2c(Nc3ccccc3)nccc12
[1]
  IC50: 48.3 µM
[2]
  IC50: > 50 µM
[3]
  IC50: 41.2 µM

## Clc1cc2c(-c3ccccc3)n[nH]c2c(Nc2ccccc2)n1
[1]
  IC50: 2.5 µM
[2]
  IC50: 23.4 µM
[3]
  IC50: 4.3 µM

## c1ccc(Nc2nccc3c(-c4ccccc4)n[nH]c23)cc1
[1]
  IC50: 22.1 µM
[2]
  IC50: 24.7 µM
[3]
  IC50: 9 µM

## Clc1cc2cn[nH]c2c(Nc2ccccc2)n1
[1]
  IC50: 34.2 µM
[2]
  IC50: > 50 µM
[3]
  IC50: 36.2 µM

## COc1cc(Nc2nc(Cl)cc3c(-c4ccccc4)n[nH]c23)cc(OC)c1OC
[5]
  Activity: 46.2%
[6]
  Activity: 23.5%
[7]
  Activity: 0.9%
[1]
  IC50: 5.9 µM
[2]
  IC50: 21.9 µM
[9]
  Activity: 30.3%
[10]
  IC50: 15 µM
[3]
  IC50: 6.7 µM
